ChEMBL document CHEMBL5385901, “Drug repurposing of propafenone to discover novel anti-tumor agents by impairing homologous recombination to delay DNA damage recovery of rare disease conjunctival melanoma” (Eur J Med Chem, 2023)

Assays:
[1] = Antiproliferative activity against human CM-AS16 cells assessed as cell growth inhibition incubated for 72 hrs by CCK8 assay; type: functional, cell-based; settings: CM-AS16, 72 h
[2] = Inhibition of homologous recombination in human CRMM-1 cells at 10 uM incubated for 12 hrs by real-time PCR analysis relative to control; type: functional
[3] = Antiproliferative activity against human PIG1 cells assessed as cell growth inhibition incubated for 72 hrs by CCK8 assay; type: toxicity, cell-based
CRMM-2 = assay: Antiproliferative activity against human CRMM-2 cells assessed as cell growth inhibition incubated for 72 hrs by CCK8 assay; type: functional, cell-based; settings: CRMM-2, 72 h
[4] = Antiproliferative activity against human HL7702 cells assessed as cell growth inhibition incubated for 72 hrs by CCK8 assay; type: toxicity, cell-based; settings: HL7702 (L02) cells
CRMM-1 = assay: Antiproliferative activity against human CRMM-1 cells assessed as cell growth inhibition incubated for 72 hrs by CCK8 assay; type: functional, cell-based; settings: CRMM-1, 72 h
[5] = Antiproliferative activity against human CM2005.1 cells assessed as cell growth inhibition incubated for 72 hrs by CCK8 assay; type: functional, cell-based; settings: CM2005.1, 72 h

Compound	IC50 [1]	inhibition at 10 µM [2]	IC50 at 72 h [3]	IC50 (CRMM-2)	IC50 at 72 h [4]	IC50 (CRMM-1)	IC50 [5]
CN1CCN(CCCOc2ccc3ccccc3c2C(=O)CCCc2ccccc2)CC1	5.2 µM	54.2%	10.4 µM	4.2 µM	10.5 µM	5.6 µM	5.9 µM
C#CCNCCCOc1ccc2ccccc2c1C(=O)CCCc1ccccc1	4.6 µM	53.2%	16 µM	4 µM	30.7 µM	6.4 µM	11.7 µM
O=C(CCc1ccccc1)c1ccccc1	> 100 µM			> 100 µM		> 100 µM	
CC(C)(C)C(=O)NCCCOc1ccc2ccccc2c1C(=O)CCCc1ccccc1		55%	14.2 µM	29.6 µM	39.9 µM	13.1 µM	35.9 µM
C=CC(=O)NCCCOc1ccc2ccccc2c1C(=O)CCCc1ccccc1	18.2 µM	66.9%	25.7 µM	17.2 µM	70.2 µM	17.3 µM	36.9 µM
CCCNCC(O)COc1ccccc1C(O)CCc1ccccc1 (stereo not given)	18.7 µM	15.7%	89.6 µM	14.9 µM	71.5 µM	55.4 µM	73.3 µM
CCCNCCCOc1cccc2cccc(C(=O)CCCc3ccccc3)c12	8.8 µM	59%	6.8 µM	5.9 µM	10.2 µM	9.8 µM	8.4 µM
O=C(CC(F)(F)F)NCCCOc1ccc2ccccc2c1C(=O)CCCc1ccccc1	21.4 µM	40.1%	18.5 µM	42.2 µM	29.9 µM	9.8 µM	19.4 µM
CCCNCCCOc1ccccc1C(=O)CCCc1ccccc1	2.1 µM	71.6%	1.7 µM	3.2 µM	32.9 µM	2 µM	2.6 µM
CCCNCCCOc1ccc2ccccc2c1C(=O)CCCc1ccccc1	4 µM	75.2%	78.2 µM	3.8 µM	28.8 µM	3.1 µM	4.1 µM
CCCNCC(O)COc1ccccc1C(=O)CCCc1ccccc1 (stereo not given)	4.9 µM	62.2%	33.2 µM	28.7 µM	46 µM	25.3 µM	25.2 µM
C=CCNCCCOc1ccc2ccccc2c1C(=O)CCCc1ccccc1	3.8 µM	55.7%	11.4 µM	3.1 µM	10.5 µM	2.2 µM	7.6 µM
CCCNCC(O)COc1ccc(C(=O)CCc2ccccc2)cc1 (stereo not given)	18.9 µM	5.5%	26.8 µM	21 µM	44 µM	28.5 µM	56.2 µM
O=C(CCCc1ccccc1)c1c(OCCCN2CCOCC2)ccc2ccccc12	4.2 µM	83.2%	18.3 µM	4.2 µM	31.8 µM	2.3 µM	1 µM
CCCNCC(O)COc1ccccc1CCCc1ccccc1 (stereo not given)	6 µM	57%	15.7 µM	20.9 µM	19.3 µM	9.2 µM	9.6 µM
CCCCCCCNCCCOc1ccccc1C(=O)CCCc1ccccc1	6.3 µM	64.8%	0.5 µM	0.6 µM	0.7 µM	1.1 µM	1.3 µM

Compound	IC50 [1]	inhibition at 10 µM [2]	IC50 at 72 h [3]	IC50 (CRMM-2)	IC50 at 72 h [4]	IC50 (CRMM-1)	IC50 [5]
CCCNCCCOc1c(C(=O)CCCc2ccccc2)ccc2ccccc12	10.8 µM	59.3%	14.5 µM	7.5 µM	28.4 µM	7.2 µM	11.7 µM
CCCNCCCOc1cc2ccccc2cc1C(=O)CCCc1ccccc1	6.8 µM	67.1%	13.6 µM	6.7 µM	11.9 µM	10.4 µM	6.6 µM
CCCNCC(O)COc1ccccc1C(=O)Cc1ccccc1 (stereo not given)	40.7 µM	57.9%	> 100 µM	30.6 µM	> 100 µM	45.9 µM	60 µM
CCCCNCCCOc1ccccc1C(=O)CCCc1ccccc1	4.9 µM	38.3%	9.1 µM	1.1 µM	3.7 µM	1.8 µM	5.4 µM
CCC(=O)NCCCOc1ccc2ccccc2c1C(=O)CCCc1ccccc1	9 µM	35%	19.5 µM	9.3 µM	29.5 µM	8.2 µM	37.7 µM
CCCOCC(O)COc1ccccc1C(=O)CCc1ccccc1 (stereo not given)	13.7 µM	20.1%	73.8 µM	28.9 µM	65 µM	20.9 µM	53 µM
CCCN(C)CC(O)COc1ccccc1C(=O)CCc1ccccc1 (stereo not given)	22.6 µM	30.3%	71.9 µM	14.6 µM	97.2 µM	48.7 µM	61.2 µM
O=C(CCCc1ccccc1)c1c(OCCCN2CCCC2)ccc2ccccc12	11.9 µM	71%	7.8 µM	8 µM	22 µM	5.6 µM	12.8 µM
CCCNCC(O)COc1ccccc1 (stereo not given)	> 100 µM			> 100 µM			
CCCNCC(O)COc1ccccc1C(=O)NCc1ccccc1 (stereo not given)	> 100 µM						
O=C(CCCc1ccccc1)c1c(OCCCn2cccc2)ccc2ccccc12			75.2 µM	50.6 µM	95.5 µM	75.9 µM	99.2 µM
Cc1cncc(COc2ccc3ccccc3c2C(=O)CCCc2ccccc2)c1		47.1%	29.1 µM	38.3 µM	95.4 µM	21.5 µM	33 µM
CCCNCCCOc1ccccc1C(=O)CCc1ccccc1	10 µM	65%	66.4 µM	35.9 µM	64.8 µM	54.5 µM	68.5 µM
O=C(CCCc1ccccc1)c1c(OCCCNC2CC2)ccc2ccccc12	14.2 µM	29.3%	8 µM	16.4 µM	32.4 µM	10.3 µM	10.4 µM
CCCOCC(=O)COc1ccccc1C(=O)CCc1ccccc1	36.8 µM	20.6%	56.7 µM	28.7 µM	73.1 µM	41.8 µM	40.9 µM
CCC(C)(C)NCCCOc1ccc2ccccc2c1C(=O)CCCc1ccccc1	3.1 µM	44.6%	5.7 µM	3.7 µM	10.4 µM	4.8 µM	4.1 µM
